PubChem BioAssay (NCI)
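48-hour exposure; five concentrations; linearly interpolated endpoints. GI50 = concentration required for 50% inhibition of growth. Definition used: TGI = concentration required for complete inhibition of growth.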

Legend:
Assay in all cases: NCI tumour cell line growth inhibition, 48 h
[1] = system: ACHN renal
[2] = system: KM12 colon
[3] = system: MDA-MB-435
[4] = system: OVCAR-5 ovarian
[5] = system: SF-539 CNS
[6] = system: U251 CNS
[7] = system: UO-31 renal
[8] = system: MOLT-4 leukemia
[9] = system: RXF 393 renal
[10] = system: SNB-19 CNS

Row | SMILES | TGI [1] | TGI [2] | TGI [3] | TGI [4] | TGI [5] | TGI [6] | TGI [7] | TGI [8] | TGI [9] | TGI [10] | GI50 [1] | GI50 [3] | GI50 [8] | GI50 [4] | GI50 [5] | GI50 [10] | GI50 [7] | GI50 [2] | GI50 [9] | GI50 [6]
1 | CCCCNC(=S)Nc1nc(C(=O)NNC(=S)NC2CCCCC2)cs1 | > 100 µM | > 100 µM | > 100 µM | > 100 µM | > 100 µM | > 100 µM | > 100 µM |  |  |  |  |  |  |  |  |  |  |  |  | 
2 | CC(C)(C)c1cc(C2=NN(c3ccccc3)C(c3ccccc3)C2)cc(C(C)(C)C)c1O (centres undefined) | > 100 µM | > 100 µM | > 100 µM | > 100 µM | > 100 µM | > 100 µM | > 100 µM | > 100 µM | > 100 µM | > 100 µM |  |  |  |  |  |  |  |  |  | 
3 | N#Cc1c(N)sc2c1-c1ccccc1OC2 | > 100 µM | > 100 µM | > 100 µM | > 100 µM | > 100 µM | > 100 µM | 70 µM | > 100 µM | 41.3 µM | > 100 µM |  |  |  |  |  |  |  |  |  | 
4 | CSc1c(C#N)c(N)nc2c(N=Nc3ccc(Cl)cc3)c(N)nn12 | 12.4 µM | 11.8 µM | 28.1 µM | 39.6 µM | 12.3 µM | 11 µM | 4.42 µM | 5.47 µM | 5.79 µM | 40.7 µM |  |  |  |  |  |  |  |  |  | 
5 | N#CCCN(CCC#N)c1ccc(/C=C2\N=C(c3ccccc3)N(NC(N)=S)C2=O)cc1 | > 100 µM | > 100 µM | > 100 µM | > 100 µM | > 100 µM | > 100 µM | > 100 µM | > 100 µM | > 100 µM | > 100 µM |  |  |  |  |  |  |  |  |  | 
6 | COc1cc(/C=C/C(=O)c2c(C)nc3ccccc3c2C)ccc1OCCCOc1cc2c(cc1OC)C(=O)N1CCC[C@H]1C=N2 | 0.106 µM |  | 0.04 µM | 0.0868 µM | 0.0563 µM |  | 0.817 µM |  |  |  | 0.0313 µM | 0.0197 µM | 0.0323 µM | 0.03 µM | 0.0239 µM | 0.187 µM | 0.0583 µM |  |  | 
7 | CCCCN1C(=O)c2c(-c3sccc3N)sc(-c3sccc3N)c2C1=O | > 100 µM | > 100 µM | > 100 µM | > 78.9 µM | 32.8 µM | 51.6 µM | > 51 µM | > 24.4 µM | 41 µM | 44.2 µM |  |  |  |  |  |  |  |  |  | 
8 | Cn1c(-c2ccccc2)cc2c3ccsc3c3ccsc3c21 | > 100 µM | > 100 µM | > 100 µM | > 100 µM | > 100 µM | > 100 µM | > 100 µM | > 100 µM | > 100 µM | > 100 µM |  |  |  |  |  |  |  |  |  | 
9 | O=C(CCCCCCC(=O)Nc1cccnc1)NO | > 92.2 µM | > 44.6 µM | > 42.6 µM | > 32.1 µM | > 100 µM | > 54.8 µM | > 100 µM | > 100 µM | 31 µM | > 100 µM |  |  |  |  |  |  |  |  |  | 
10 | O=C1/C(=C/c2ccccc2O)N=C(c2ccccc2)N1c1nc2ccccc2s1 | 64.3 µM | > 100 µM | > 100 µM | > 100 µM | 57 µM | 28.7 µM | > 100 µM | 60.7 µM | > 100 µM |  |  |  |  |  |  |  |  |  |  | 
11 | CO/N=C(\C)COc1ccc2c(=O)c(-c3ccccc3)coc2c1 | 38.8 µM | > 100 µM | > 100 µM | 43.8 µM |  | > 100 µM | 46.3 µM | > 100 µM | 57.8 µM | > 100 µM | 19.2 µM | > 100 µM | > 100 µM | 3.23 µM |  | 17.7 µM | 22.2 µM | > 100 µM | 27.1 µM | 32.2 µM
12 | Brc1ccc2c([C@H]3CN[C@@H](c4c[nH]c5cc(Br)ccc45)CN3)c[nH]c2c1 | 9.87 µM | 3.28 µM | 3.11 µM | 10.5 µM | 7.46 µM | 4.19 µM | 13.8 µM | 6.48 µM | 6.6 µM | 21.8 µM |  |  |  |  |  |  |  |  |  | 
13 | CCOC(=O)NC(NC1=NCCS1)(C(=O)OCC)C(F)(F)F (centres undefined) | > 100 µM | > 100 µM | > 100 µM | > 100 µM | > 100 µM | > 100 µM | > 100 µM | > 100 µM | > 100 µM | > 100 µM |  |  |  |  |  |  |  |  |  | 
14 | COc1ccc2oc(OC)c(CC=C(C)C)c(=O)c2c1C | > 100 µM | > 100 µM | > 100 µM | > 100 µM | > 100 µM | > 100 µM | > 100 µM | > 100 µM |  | > 100 µM |  |  |  |  |  |  |  |  |  | 
15 | Cc1ccc(O)c(-c2cc(-c3cccc(Cl)c3)c(C#N)c(N)n2)c1 | 42.1 µM | 64.2 µM | 34.3 µM | 70.4 µM | 52 µM | 30 µM | 52.8 µM | 38.6 µM | 47.8 µM |  |  |  |  |  |  |  |  |  |  | 
16 | N=c1c2c(-c3ccccc3)c[nH]c2ncn1N | > 100 µM | > 100 µM | > 100 µM | > 100 µM | > 100 µM | > 100 µM | > 100 µM | > 100 µM |  | > 100 µM |  |  |  |  |  |  |  |  |  | 
17 | Cc1ccc(-n2[nH]nc(C#N)c2=O)cc1 | > 100 µM | > 100 µM | > 100 µM | > 100 µM |  | > 100 µM | > 100 µM | > 100 µM | > 100 µM | > 100 µM |  |  |  |  |  |  |  |  |  | 
18 | CCCCCCCCCCCCCC[n+]1ccc2c(C)c3c(c(C)c2c1)c1cc(O)ccc1n3CC | 3.9 µM |  | 1.03 µM | 1.85 µM | 1.52 µM |  | 4.57 µM |  |  |  | 1.22 µM | 0.314 µM |  | 0.497 µM | 0.419 µM |  | 1.39 µM |  |  | 
19 | CC(C)C1=CCC2C(=C1)CCC1C(C)(C(=O)O)CCCC21C (centres undefined) (tested in a mixture with another compound) | > 100 µM | > 100 µM | > 100 µM | > 100 µM | > 100 µM | > 100 µM | > 100 µM | > 100 µM | > 100 µM |  |  |  |  |  |  |  |  |  |  | 
20 | O=C1CCCC/C1=C\c1ccc(Br)cc1 | 9.18 µM | 5.83 µM | 30.6 µM |  | 37.1 µM | 9.79 µM | 29.6 µM | 6.24 µM |  | 13.2 µM |  |  |  |  |  |  |  |  |  | 
